# How the values were obtained:
# solubility = type: physicochemical
# [1] = stability in the solid state and as a solution; type: physicochemical; settings: pH range from 3 to 9, in particular from 5 to 8
# L 1210 tumor cells = assay: Proliferation experiment (MTT, 72 hours); type: cell-based; settings: Mus musculus, L1210, L 1210, 72 hours, 4 experiments, deviation less than 15%
# Experimental: L 1210 tumor cells at the exponential growth phase (5×10^3 cells/ml, Roswell Park Memorial Institute (RPMI) medium) were incubated in a microtiter plate with […] for a period of 72 hours at 37° C., 5% of CO2 and 95% relative atmospheric humidity and various concentrations of the test substances. After 65 hours, 50 μl of [3-(4,5-dimethylthiazol-2-yl)-2,5-diphenyltetrazolium bromide](MTT) (2.5 mg/ml of MTT in phosphate buffer saline (PBS)) were added. The MTT was reduced by living cells into the red, water-insoluble dyestuff formazan. After a further 7 hours, the supernatant medium was carefully removed. Formazan was dissolved by adding 100 μl of dimethyl sulfoxide per recess and subsequent shaking gently. The extinction of each recess was determined using a Multisan 340 CC photometer (Messrs. Flow) at 492 nm. The results were determined from the extinction ratio of cells with test substance to cells without test substance.
# (§1) In all cases, the experiments were carried out 4 times. The deviation in the results was less than 15%.
# L 1210 leukemia cells [2] = assay: Soft-agar assay, continuous incubation (Hamburger and Salmon); type: cell-based; settings: Mus musculus, L1210; L 1210, continuous incubation 5 to 7 days; 4 experiments, deviation less than 15%
# Experimental: (§2) The experiment was carried out in accordance with the process of Hamburger and Salmon [New Engl. J. Med. 298, 1321-1327 (1978)]. The medium was replaced by McCoy 5A, and the number of cells was reduced to 5×10^2 cells/plate.
# A continuous incubation of the cells with various concentrations of the test substance from Examples 4 and 5 was carried out. The compounds to be tested were applied to the agar plates before plating-out the cell cultures. The cell cultures then grew for 5 to 7 days in the incubator in an atmosphere of 5% of CO2, 20% of O2 and 95% relative atmospheric humidity at 37° C. After this time, the number of cell colonies having a diameter from 60 μm was determined (in %) relative to the number of cell colonies which had grown in comparison without test substance.
# (§3) The IC50 value for continuous and 1-hour incubation was determined from the dose/action curve.
# as §1
# [3] = tested on: human and animal tumor cells; assay: tumor-inhibiting action in vitro; type: cell-based
# [4] = tested on: Gram-positive and Gram-negative bacteria; assay: plate-agar diffusion test in vitro; type: cell-based; settings: 10 μl/test circle, 6 mm diameter
# L 1210 leukemia cells [5] = assay: Soft-agar assay, 1-hour incubation (Hamburger and Salmon); type: cell-based; settings: Mus musculus, L1210; L 1210, 1-hour incubation; 4 experiments, deviation less than 15%
# Experimental: as §2
# In the test, the cells were incubated at 37° C. for 1 hour at various concentrations of the test substance. The cells were then washed twice with McCoy 5A solution (Flow catalog, Meckenheim, FRG) and subsequently applied to agar plates in accordance with the method of Hamburger and Salmon. The cells were subsequently cultivated as described above, and the number of cell colonies was determined (evaluation as in a).
# as §3, §1
IC50 (L 1210 leukemia cells [5]),SMILES,"solubility (solubility; methanol, acetone, DMSO, dioxane and chloroform)",solubility (solubility; water and alkanes),stability [1],IC50 (L 1210 tumor cells),IC50 (L 1210 leukemia cells [2]),tumor-inhibiting action [3],antibacterial action [4]
–,CC1OC(OC2CC(c3ccc4c(c3O)C(=O)C3=C(C4=O)C4(OC5CCC(O)C(C)O5)C(=O)CC(C)(O)CC4(O)C=C3)OC(C)C2O)CCC1O (stereo not shown) [Urdamycin G],readily soluble,not in water and alkanes,stable,3.5 µg/mL,0.85 µg/mL,tumor-inhibiting action,comes into effect both against Gram-positive and Gram-negative bacteria
0.065 µg/mL,"CC(=O)Oc1c(C2CC(OC3CCC(OC(C)=O)C(C)O3)C(OC(C)=O)C(C)O2)ccc2c1C(=O)C1=C(C2=O)C2(OC3CCC(OC(C)=O)C(C)O3)C(=O)CC(C)(O)CC2(O)C=C1 (stereo not shown) [5',4A,4C,8-Tetra-O-acetyl-urdamycin G, 5',4A,4C,8-tetra-O-acetyl urdamycin G]",–,–,–,< 1 µg/mL,0.036 µg/mL,–,–

# — US4859655A, “Urdamycin G and derivatives thereof, a process for their preparation and their use” (Hoechst Aktiengesellschaft, priority 1986, dated 1989)
